Assay: molar heat capacity at constant pressure; mn = molality of the nth substance listed, in mol/kg
Details: 101 kPa, Liquid, Large sample (1 g) DSC

CCCCCC[N+](C)(C)C.[Br-] [hexyltrimethylammonium bromide] + O
molar heat capacity at constant pressure [J/K/mol]
Details | 298.15 K | 303.15 K | 308.15 K | 313.15 K
m1 = 0.01002 | 75.42 | 75.39 | 75.38 | 75.39
m1 = 0.02406 | 75.57 | 75.55 | 75.54 | 75.55
m1 = 0.03 | 75.65 | 75.62 | 75.61 | 75.63
m1 = 0.03989 | 75.72 | 75.7 | 75.69 | 75.69
m1 = 0.045 | 75.7 | 75.68 | 75.67 | 75.7
m1 = 0.04985 | 75.78 | 75.76 | 75.75 | 75.76
m1 = 0.05497 | 75.82 | 75.79 | 75.78 | 75.8
m1 = 0.05996 | 75.89 | 75.86 | 75.86 | 75.87
m1 = 0.07507 | 75.97 | 75.95 | 75.94 | 75.95
m1 = 0.07976 | 76.04 | 76.02 | 76.02 | 76.02
m1 = 0.09 | 76.13 | 76.11 | 76.11 | 76.12
m1 = 0.09694 | 76.14 | 76.12 | 76.11 | 76.13
m1 = 0.11 | 76.31 | 76.29 | 76.28 | 76.3
m1 = 0.1199 | 76.37 | 76.35 | 76.35 | 76.36
m1 = 0.1251 | 76.39 | 76.36 | 76.36 | 76.38
m1 = 0.1301 | 76.52 | 76.51 | 76.51 | 76.52
m1 = 0.14 | 76.58 | 76.56 | 76.55 | 76.57
m1 = 0.1502 | 76.59 | 76.57 | 76.57 | 76.58
m1 = 0.1751 | 76.79 | 76.78 | 76.77 | 76.78
m1 = 0.1993 | 77 | 76.98 | 76.98 | 77
m1 = 0.2248 | 77.21 | 77.19 | 77.19 | 77.21
m1 = 0.2507 | 77.41 | 77.4 | 77.41 | 77.43
m1 = 0.2757 | 77.59 | 77.58 | 77.59 | 77.61
m1 = 0.2801 | 77.65 | 77.64 | 77.66 | 77.71
m1 = 0.2851 | 77.71 | 77.7 | 77.69 | 77.71
m1 = 0.2996 | 77.82 | 77.8 | 77.8 | 77.83
m1 = 0.3222 | 78.01 | 78 | 78.01 | 78.06
m1 = 0.3311 | 78.06 | 78.05 | 78.06 | 78.09
m1 = 0.3512 | 78.21 | 78.21 | 78.21 | 78.23
m1 = 0.4002 | 78.59 | 78.59 | 78.6 | 78.64
m1 = 0.4258 | 78.85 | 78.84 | 78.84 | 78.86
m1 = 0.4503 | 79 | 78.99 | 79 | 79.02
m1 = 0.4998 | 79.37 | 79.37 | 79.38 | 79.41
m1 = 0.5263 | 79.58 | 79.57 | 79.58 | 79.61
m1 = 0.5513 | 79.72 | 79.73 | 79.75 | 79.77
m1 = 0.5742 | 79.94 | 79.95 | 79.96 | 79.98
m1 = 0.6007 | 80.15 | 80.16 | 80.18 | 80.22
m1 = 0.6516 | 80.55 | 80.56 | 80.57 | 80.59
m1 = 0.701 | 80.9 | 80.91 | 80.92 | 80.95
m1 = 0.7517 | 81.28 | 81.29 | 81.31 | 81.33
m1 = 0.8016 | 81.66 | 81.67 | 81.68 | 81.71
m1 = 0.8842 | 82.28 | 82.29 | 82.31 | 82.33
m1 = 0.9496 | 82.77 | 82.78 | 82.79 | 82.81
m1 = 0.9915 | 83.01 | 83.02 | 83.05 | 83.08
